Data on four compounds can be found in publication PMC11256175 (Bioengineering & Translational Medicine, 2024).

On the set-up of data set [1]: method as in earlier work. Conditions: mice and rats; cited from earlier work.
Data set [2] in a line: Equilibrium solubility of EV‐P in injectable oily vehicles (HPLC). The format is physicochemical. Conditions: for solubility at 3 days: 25°C, stored over 3 days, mean ± SD (n = 3). As for the experimental part: […] […] […] […] The EV‐P concentration in the sample was analyzed using Waters HPLC system (Model 515 pump, Model 486 UV‐VIS detector, and Model 717 plus autosampler, Waters, Milford, MA, USA) equipped with a reversed‐phase C18 column (4.6 × 150 mm, 5 μm, Shiseido). The mobile phase for EV‐P analysis consisted of 2‐propanol and deionized distilled water at a volume ratio of 6:4. The flow rate of the mobile phase and detection wavelength were 1.0 mL/min and 253 nm, respectively, and the elution time of EV‐P was 5.3 min. The calibration curve was linear in the range of 1–100 μg/mL and the limit of detection (LOD) and limit of quantitation (LOQ) values were calculated as 0.5 μg/mL and 1.5 μg/mL, respectively.

Data set [3] in a line: Dispersibility of EV‐P particles in oily vehicles (visual). Format: physicochemical. The following applies: after 3 days storage at 25°C, EV‐P 9.0 mg/mL. The method, then:
Pulverized EV‐P powder (5 mg as EV) was added to injectable oil vehicles (1 mL) in an Eppendorf tube. The mixture was then vortexed for 10 min using a multi‐vortex (Vortex Genie 2, Scientific Industries, Chicago, IL, USA) and then shaken for 3 h at 25°C in a shaking incubator (model BF‐60SIRL, Bio Free, Seoul, Korea). Then, the dispersibility of EV‐P particles in different oily vehicles was visually evaluated. […] The EV‐P concentration in the sample was analyzed using Waters HPLC system (Model 515 pump, Model 486 UV‐VIS detector, and Model 717 plus autosampler, Waters, Milford, MA, USA) equipped with a reversed‐phase C18 column (4.6 × 150 mm, 5 μm, Shiseido). The mobile phase for EV‐P analysis consisted of 2‐propanol and deionized distilled water at a volume ratio of 6:4. The flow rate of the mobile phase and detection wavelength were 1.0 mL/min and 253 nm, respectively, and the elution time of EV‐P was 5.3 min. The calibration curve was linear in the range of 1–100 μg/mL and the limit of detection (LOD) and limit of quantitation (LOQ) values were calculated as 0.5 μg/mL and 1.5 μg/mL, respectively.

Data set [4] is described as follows: Solubility of EV‐P in phosphate buffer and dissolution medium. The format is physicochemical.
For data set [5] the following is noted: phosphate‐buffered saline [PBS], pH 7.4; cited from earlier work.
On the set-up of data set [6]: method as in PMID 11672957. The following applies: after SC or IM injection in pigs; cited from earlier work.
Details of data set [7]: method as in PMID 27067365. Conditions: pretreatment and intermittent dosing of clodronate; cited from earlier work.

Structures are written as SMILES. Converted amounts (≈) assume the structure as drawn. “Also recorded” adds a separate entry of the source. Like-named read-outs stand apart in the source and are kept apart here. Bounds are passed on as bounds.

For `C=C1[C@H](CO)[C@@H](O)C[C@@H]1n1cnc2c(=O)[nH]c(N)nc21` [EV, entecavir], the “Oral doses with minimal acute toxicity” value in data set [1] is on record as “up to 200 mg/kg”.
With `C=C1[C@H](COC(=O)CCCCCCCCCCCCCCC)[C@@H](O)C[C@@H]1n1cnc2c(=O)[nH]c(N)nc21` [EV‐P, 2‐amino‐1,9‐dihydro‐9‐[(1S,3R,4S)‐4‐hydroxy‐3‐(hexadecanoyloxymethyl)‐2‐methylenecyclopentyl]‐6H‐purin‐6‐one], in data set [2] (OS designed using tricaprylin and Labrafac, EV‐P concentration of 9.0 mg/mL), the “EV‐P dissolved in OS” value is listed as “less than 1.0 % (w/v)”. For the same compound, the solubility at 3 days in data set [2] (in castor oil) amounted to 2100 µg/mL (≈ 4070 µM); in data set [2] (in peanut oil) it was 1900 µg/mL (≈ 3680 µM); in data set [2] (oil or lipid, thermodynamic from solid, in Labrafac PG), 110 ± 10 µg/mL (≈ 213 µM); in data set [2] (oil or lipid, thermodynamic from solid, in Miglyol 812), 620 ± 120 µg/mL (≈ 1200 µM); in data set [2] (oil or lipid, thermodynamic from solid, in castor oil), 2140 ± 70 µg/mL (≈ 4150 µM); in data set [2] (oil or lipid, thermodynamic from solid, in cotton seed oil), 980 ± 570 µg/mL (≈ 1900 µM). Besides, the solubility at 3 days is 5900 ± 50 µg/mL (≈ 11400 µM) in data set [2] (oil or lipid, thermodynamic from solid, in oleic acid); 1950 ± 180 µg/mL (≈ 3780 µM) in data set [2] (oil or lipid, thermodynamic from solid, in peanut oil); 800 ± 130 µg/mL (≈ 1550 µM) in data set [2] (oil or lipid, thermodynamic from solid, in soybean oil); 30 ± 10 µg/mL (≈ 58.2 µM) in data set [2] (oil or lipid, thermodynamic from solid, in tricaprylin). The Dispersibility result in data set [3] (in Labrafac PG) was “evenly dispersed”; in data set [3] (in Miglyol 812), “Aggregated”; in data set [3] (in castor oil) it was “Aggregated”; in data set [3] (in cotton seed oil), “Aggregated”; in data set [3] (in oleic acid) it was “Re‐dispersible”; in data set [3] (in peanut oil) it was “Aggregated”. Also, the figures for the Dispersibility result in data set [3] (in soybean oil) and in data set [3] (in tricaprylin) were “Aggregated” and “evenly dispersed; also recorded: Re‐dispersible”, respectively. Also, the solubility in data set [4] (isopropyl alcohol and distilled water (5:5, v/v) mixture, read-out: Solubility in dissolution medium) was more than 100 µg/mL; in data set [4] (phosphate buffer / aqueous media pH 7.4, read-out: Solubility in phosphate buffer (pH 7.4)) it was 1.1 µg/mL (≈ 2.13 µM). Moreover, the Aqueous solubility result in data set [5] is “approximately 1.1 μg/mL”.
Turning to `CCCCCCCCCCCCCC(=O)OC(C)C` [isopropyl myristate], the “Elimination T 1/2 from injection site” value in data set [6] is “approximately 20 days”.
On to `Cc1nc2n(c(=O)c1CCN1CCC(c3noc4cc(F)ccc34)CC1)CCCC2O` (centres unmarked) [paliperidone], for which, in data set [7], the “AUC after 1 day post‐dosing, times higher than IM injection with no treatment” value was “approximately 2.2 times” and the “C max, times higher than IM injection with no treatment” value was 1.5 times.
